{
  "source": "paper PMC12136187",
  "about": "“A Full-Spectrum Generative Lead Discovery (FSGLD) Pipeline via DRUG-GAN: A Multiscale Method for Drug-like/Target-specific Compound Library Generation” (Research Square, 2025)",
  "biological_target": "T1, CB2 receptor (cannabinoid receptor 2) (Homo sapiens, UniProt P34972)",
  "T1 construct": "gene CNR2",
  "T1 sequence (P34972 whole entry)": "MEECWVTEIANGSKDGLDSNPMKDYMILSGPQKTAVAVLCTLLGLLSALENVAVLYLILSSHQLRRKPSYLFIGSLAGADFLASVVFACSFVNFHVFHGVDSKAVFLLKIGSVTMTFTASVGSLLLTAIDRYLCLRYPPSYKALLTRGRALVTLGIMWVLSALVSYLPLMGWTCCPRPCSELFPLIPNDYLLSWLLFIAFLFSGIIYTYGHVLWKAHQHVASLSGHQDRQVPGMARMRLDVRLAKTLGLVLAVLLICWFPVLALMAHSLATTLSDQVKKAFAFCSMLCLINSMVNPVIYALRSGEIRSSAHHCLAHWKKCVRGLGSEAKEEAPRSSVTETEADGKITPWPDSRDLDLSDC",
  "experiment": "radioligand binding assay, dose-response",
  "data": [
    {"smiles": "CCCn1c(C)c(C(=O)NCC(=O)N2CCCCC2)c2cc(OC)ccc21", "note": "[ZINC77179032]", "values": [
      {"measurement": "Ki", "value": 3.77, "unit": "µM"}
    ]}
  ]
}
